The results in this text go back to ChEMBL document CHEMBL5131486, “Design, synthesis, biological evaluation and molecular modeling of N-isobutyl-N-((2-(p-tolyloxymethyl)thiazol-4yl)methyl)benzo[d][1,3] dioxole-5-carboxamides as selective butyrylcholinesterase inhibitors” (Bioorg Med Chem Lett, 2022).

Series [1] concerns the target T1, Acetylcholinesterase (Homo sapiens, UniProt P22303). Briefly: Inhibition of AChE (unknown origin) at 10 uM relative to control.
Series [2] concerns the target T2, Cholinesterase (Homo sapiens, UniProt P06276). Briefly: Inhibition of BuchE (unknown origin) at 10 uM relative to control.
Series [3] addresses T2, Cholinesterase. Briefly: Inhibition of BuchE (unknown origin).
Series [4] in a line: Permeability of compound by PAMPA-BBB assay. It counts as ADME. The settings on record: read-out: permeability.
For series [5], the target named is T1, Acetylcholinesterase. The series is described as follows: Inhibition of AChE (unknown origin).
Series [6] concerns the target T2, Cholinesterase. The series is described as follows: Competitive inhibition of BuChE (unknown origin) assessed as increase in Km with constant Vmax at 0 to 400 nM using varying concentrations of substrate by Lineweaver-Burk plot analysis. The settings on record: dose 0-400 nM.
Series [7] concerns HepG2. The series is described as follows: Cytotoxicity against human HepG2 cells assessed as reduction in cell viability at 50 uM incubated for 24 hrs by MTT assay relative to control. It counts as toxicity, cell-based. The settings on record: hepg2, 24 h.
For series [8], the system named is HepG2. Briefly: Cytotoxicity against human HepG2 cells assessed as reduction in cell viability at <20 uM incubated for 24 hrs by MTT assay. It counts as toxicity, cell-based. To be noted: hepg2, 24 h.
Series [9] has as its system SH-SY5Y. The series is described as follows: Cytotoxicity against human SH-SY5Y cells assessed as reduction in cell viability at 50 uM incubated for 24 hrs by MTT assay relative to control. The series is classed as toxicity, cell-based. For orientation: Tetrazolium assays rely on reduction of a dye to a coloured formazan, in cell work by metabolically active cells.
For series [10], the system named is SH-SY5Y. Briefly: Cytotoxicity against human SH-SY5Y cells assessed as reduction in cell viability at <20 uM incubated for 24 hrs by MTT assay. The series is classed as toxicity, cell-based.

SMILES strings stand for the structures. Activity calls are given as the source filed them. The rule behind the calls is not given here.

T2 sequence (P06276 whole entry): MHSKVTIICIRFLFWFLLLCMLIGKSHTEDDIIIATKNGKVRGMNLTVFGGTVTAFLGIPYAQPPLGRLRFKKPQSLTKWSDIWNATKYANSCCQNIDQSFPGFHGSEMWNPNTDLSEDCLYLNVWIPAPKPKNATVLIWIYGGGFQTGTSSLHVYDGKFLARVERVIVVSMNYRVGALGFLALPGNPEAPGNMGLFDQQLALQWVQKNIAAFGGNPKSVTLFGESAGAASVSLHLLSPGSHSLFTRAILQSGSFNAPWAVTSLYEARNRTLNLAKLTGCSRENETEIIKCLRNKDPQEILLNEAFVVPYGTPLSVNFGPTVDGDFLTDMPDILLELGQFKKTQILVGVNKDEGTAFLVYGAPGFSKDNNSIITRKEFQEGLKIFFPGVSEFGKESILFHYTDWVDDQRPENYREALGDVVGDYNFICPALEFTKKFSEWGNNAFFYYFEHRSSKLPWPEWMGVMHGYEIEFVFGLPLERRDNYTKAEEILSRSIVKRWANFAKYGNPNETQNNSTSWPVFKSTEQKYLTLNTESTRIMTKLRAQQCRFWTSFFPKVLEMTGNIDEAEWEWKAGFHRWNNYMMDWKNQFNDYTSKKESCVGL
T1 sequence (P22303 whole entry): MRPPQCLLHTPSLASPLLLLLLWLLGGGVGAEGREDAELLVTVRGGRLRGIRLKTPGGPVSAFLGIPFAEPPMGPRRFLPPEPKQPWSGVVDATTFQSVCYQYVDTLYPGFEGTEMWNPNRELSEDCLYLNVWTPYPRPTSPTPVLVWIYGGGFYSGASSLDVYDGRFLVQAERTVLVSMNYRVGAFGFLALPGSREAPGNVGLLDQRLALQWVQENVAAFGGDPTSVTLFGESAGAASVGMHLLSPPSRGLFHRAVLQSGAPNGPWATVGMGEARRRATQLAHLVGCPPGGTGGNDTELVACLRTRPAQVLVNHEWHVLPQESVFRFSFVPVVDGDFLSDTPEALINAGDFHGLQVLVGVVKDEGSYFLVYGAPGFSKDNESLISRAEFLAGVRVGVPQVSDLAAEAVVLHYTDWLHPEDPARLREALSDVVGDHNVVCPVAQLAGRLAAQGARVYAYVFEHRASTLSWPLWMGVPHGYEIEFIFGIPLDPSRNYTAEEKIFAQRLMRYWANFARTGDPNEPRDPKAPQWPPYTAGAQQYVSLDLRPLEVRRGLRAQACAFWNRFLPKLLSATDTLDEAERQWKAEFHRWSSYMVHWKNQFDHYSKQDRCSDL

On to `COc1ccc(C(=O)N(Cc2csc(COc3ccc(C)cc3)n2)CC(C)C)cc1`, for which the inhibition at Acetylcholinesterase [1] was determined as 4.91%; against Cholinesterase [2] it was 32.8%.
`Cc1ccc(OCc2nc(CN(CC(C)C)C(=O)c3ccccc3Cl)cs2)cc1` displayed a half-inhibitory concentration (IC50) on Cholinesterase [3] of 3.94 µM. In addition, the inhibition against Cholinesterase [2] is 72.4%.
In the case of `Nc1c2c(nc3ccccc13)CCCC2`, at Cholinesterase [2], the inhibition came to 0.07%.
`COCc1nc(CN(CC(C)C)C(=O)c2ccc3c(c2)OCO3)cs1`: the inhibition against Acetylcholinesterase [1] was found to be 4.72%; against Cholinesterase [2], 15.3%.
In turn, `CC(C)CN(Cc1csc(COc2ccc(Cl)cc2)n1)C(=O)c1ccc2c(c1)OCO2` registered an IC50 on Cholinesterase [3] of 0.24 µM. Further, the figures for the inhibition at Acetylcholinesterase [1] and against Cholinesterase [2] were -9.46% and 91.2%, respectively.
In the case of `Cc1ccc(S(=O)(=O)C(=O)N(Cc2csc(COc3ccc(F)cc3)n2)CC(C)C)cc1`, the midpoint of inhibition against Cholinesterase [3], the IC50, lay at 6.85 µM. For the same compound, the inhibition on Acetylcholinesterase [1] turned out to be 14.3%; against Cholinesterase [2], 64.4%.
In the same order, the values of `CC(C)CN(Cc1csc(COc2ccc(C(F)(F)F)cc2)n1)C(=O)c1ccc2c(c1)OCO2` are 5.23 µM, 1.71% and 65.9%.
Turning to `CC(=O)[C@H]1CC[C@H]2[C@@H]3CCC4=CC(=O)CC[C@]4(C)[C@H]3CC[C@]12C` [PROGESTERONE], the Papp in series [4] came out at 89 nm/s.
For the compound `CC(C)CN(Cc1csc(COc2ccc(F)cc2)n1)C(=O)S(=O)(=O)c1ccccc1`, 8.19 µM corresponded to half-maximal inhibition at Cholinesterase [3] (IC50). Moreover, the inhibition on Acetylcholinesterase [1] came to 9.12%; against Cholinesterase [2], 55.1%.
For the compound `Cc1ccc(OCc2nc(CN(CC(C)C)C(=O)S(=O)(=O)c3cccnc3)cs2)cc1`, the inhibition against Acetylcholinesterase [1] was 16.5%; against Cholinesterase [2], 48.3%.
On Cholinesterase [3], `Cc1ccc(OCc2nc(CN(CC(C)C)C(=O)c3ccc(Cl)cc3)cs2)cc1` came in with a concentration for half-maximal inhibition (IC50) of 2.23 µM. Further, the inhibition against Acetylcholinesterase [1] is -6.51%; against Cholinesterase [2] it was 65.5%.
Regarding `COc1ccccc1C(=O)N(Cc1csc(COc2ccc(C)cc2)n1)CC(C)C`, the inhibition amounted to 2.25% on Acetylcholinesterase [1] and 26% against Cholinesterase [2].
The compound `Cc1ccc(OCc2nc(CN(CC(C)C)C(=O)c3cccc(C)c3)cs2)cc1` came in with an IC50 against Cholinesterase [3] of 1.17 µM. Also, the inhibition is -5.65% on Acetylcholinesterase [1] and 94.1% against Cholinesterase [2].
On to `Cc1ccc(OCc2nc(CN(CC(C)C)C(=O)c3cccc(Cl)c3)cs2)cc1`, for which, on Cholinesterase [3], the concentration for half-maximal inhibition (IC50) came to 0.86 µM. The inhibition against Acetylcholinesterase [1] is -3.62%; on Cholinesterase [2], 97%.
On Cholinesterase [3], `Cc1ccc(OCc2nc(CN(CC(C)C)C(=O)c3ccc(F)cc3)cs2)cc1` displayed an IC50 of 2.21 µM. Also, on Cholinesterase [2], the inhibition was found to be 82.2%.
`COc1cccc(C(=O)N(Cc2csc(COc3ccc(C)cc3)n2)CC(C)C)c1`: on Cholinesterase [3], the IC50 is 0.97 µM. For the same compound, the inhibition on Acetylcholinesterase [1] was 1.46%; at Cholinesterase [2], 91.4%.
`Cc1ccc(OCc2nc(CN(CC(C)C)C(=O)c3ccc4c(c3)OCO4)cs2)cc1` gave an IC50 at Cholinesterase [3] of 1.28 µM. Also, the inhibition at Acetylcholinesterase [1] was determined as 1.76%; against Cholinesterase [2], 87.2%.
In the same order, the values of `COc1ccc(OCc2nc(CN(CC(C)C)C(=O)c3ccc4c(c3)OCO4)cs2)cc1` are 1.8 µM, -5.49% and 77.8%.
The compound `Cc1ccc(OCc2nc(CN(CC(C)C)C(=O)c3ccc(C)cc3)cs2)cc1` registered an IC50 against Cholinesterase [3] of 1.05 µM. Moreover, the inhibition against Cholinesterase [2] worked out at 92.6%.
For the compound `Cc1ccc(OCc2nc(CN(CC(C)C)C(=O)S(=O)(=O)c3ccc4ccccc4c3)cs2)cc1`, the inhibition against Acetylcholinesterase [1] is 18.7%; against Cholinesterase [2], 36.5%.
The compound `Cc1ccc(OCc2nc(CN(CC(C)C)C(=O)c3cccc(F)c3)cs2)cc1` yielded a half-inhibitory concentration (IC50) against Cholinesterase [3] of 2.43 µM. Also, the inhibition at Acetylcholinesterase [1] turned out to be 0.51%; against Cholinesterase [2], 78.2%.
As to `CCCC(=O)N(Cc1csc(COc2ccc(C)cc2)n1)CC(C)C`, the IC50 on Cholinesterase [3] turned out to be 4.57 µM. Further, the inhibition on Acetylcholinesterase [1] was 21.2%; on Cholinesterase [2] it was 66%.
`Cc1ccc(OCc2nc(CN(CC(C)C)C(=O)c3ccccc3F)cs2)cc1` gave an IC50 against Cholinesterase [3] of 1.39 µM. Moreover, the inhibition on Cholinesterase [2] was 86.6%.
Take `CC(=O)N(Cc1csc(COc2ccc(C)cc2)n1)CC(C)C`: at Cholinesterase [3], the half-inhibitory concentration (IC50) was found to be 6.01 µM. Further, the inhibition against Acetylcholinesterase [1] came to 19.9%; against Cholinesterase [2], 64.8%.
In the case of `CN1c2ccccc2C(NCCCCCCC(=O)CCCCNc2c3c(nc4ccccc24)CCCC3)c2ccc(Cl)cc2S1(=O)=O` (centres undefined), the results for the IC50 at Cholinesterase [3] and against Acetylcholinesterase [5] were 0.004 µM and 0.16 µM, respectively.
With `CC(C)CN(Cc1csc(COc2ccc(F)cc2)n1)C(=O)c1ccc2c(c1)OCO2`, on Cholinesterase [6], the inhibition entry is “Active”. The Activity in the series with HepG2 [7] was under 40%; with HepG2 [8] it was “Non-Toxic”; in the series with SH-SY5Y [9], under 40%; in the series with SH-SY5Y [10], “Non-Toxic”. Inhibition on Cholinesterase [3] was half-maximal at 0.13 µM (IC50). Also, in series [4], the Papp came to 49.7 nm/s. The results for the inhibition against Acetylcholinesterase [1] and against Cholinesterase [2] were -9.02% and 96.4%, respectively.
In the case of `Cc1ccc(OCc2nc(CN(CC(C)C)C(=O)c3ccccc3C)cs2)cc1`, the half-maximal inhibitory concentration (IC50) at Cholinesterase [3] was 4.1 µM. Besides, at Cholinesterase [2], the inhibition came to 75.2%.
`Cc1ccc(OCc2nc(CN(CC(C)C)C(=O)c3ccco3)cs2)cc1` registered an IC50 against Cholinesterase [3] of 1.67 µM. Besides, the values for the inhibition on Acetylcholinesterase [1] and against Cholinesterase [2] were 1.61% and 87.8%, respectively.
Take `Cc1ccc(OCc2nc(CN(CC(C)C)C(=O)S(=O)(=O)c3ccccc3)cs2)cc1`: the inhibition against Acetylcholinesterase [1] was 12%; against Cholinesterase [2] it was 32.9%.
The compound `CCCCCC(=O)N(Cc1csc(COc2ccc(C)cc2)n1)CC(C)C` displayed an IC50 against Cholinesterase [3] of 1.99 µM. In addition, the inhibition was determined as 2.55% at Acetylcholinesterase [1] and 86.1% on Cholinesterase [2].
Take `Cc1ccc(OCc2nc(CN(CC(C)C)C(=O)S(=O)(=O)c3ccc(C)cc3)cs2)cc1`: the inhibition against Acetylcholinesterase [1] is 10.1%; against Cholinesterase [2] it was 38.4%.
Consider `Cc1ccc(OCc2nc(CN(CC(C)C)C(=O)c3ccccc3)cs2)cc1`, for which the IC50 against Cholinesterase [3] worked out at 1.15 µM. For the same compound, the inhibition turned out to be 0.25% at Acetylcholinesterase [1] and 92% against Cholinesterase [2].
`Cc1ccc(OCc2nc(CN(CC(C)C)C(=O)c3c(F)cccc3F)cs2)cc1` registered a 50% inhibitory concentration (IC50) against Cholinesterase [3] of 4.89 µM. Besides, the inhibition against Acetylcholinesterase [1] worked out at 0.18%; against Cholinesterase [2], 66.4%.
On to `CNC(=O)Oc1ccc2c(c1)[C@]1(C)CCN(C)[C@]1(C)N2C`, for which 0.016 µM corresponded to half-maximal inhibition against Cholinesterase [3] (IC50).
Turning to `CC(C)CN(Cc1csc(COc2ccc(F)cc2)n1)C(=O)S(=O)(=O)c1ccc2ccccc2c1`, the inhibition came out at 20.9% at Acetylcholinesterase [1] and 40.7% against Cholinesterase [2].
As to `Cc1ccc(OCc2nc(CN(CC(C)C)C(=O)c3cccs3)cs2)cc1`, on Cholinesterase [3], half-maximal inhibition (IC50) required 2.3 µM. The inhibition at Acetylcholinesterase [1] was -0.31%; against Cholinesterase [2], 82%.
For `CN(Cc1csc(COc2ccc(F)cc2)n1)C(=O)c1ccc2c(c1)OCO2`, the figures for the inhibition against Acetylcholinesterase [1] and on Cholinesterase [2] were 12.8% and 31.9%, respectively.
`CCC(=O)N(Cc1csc(COc2ccc(C)cc2)n1)CC(C)C`: the midpoint of inhibition at Cholinesterase [3], the IC50, lay at 8.08 µM. In addition, the inhibition on Acetylcholinesterase [1] is -2.4%; on Cholinesterase [2], 55.3%.

The inhibition is the relative decrease from the control value, in per cent. Broadly, the IC50 is the concentration at which inhibition is half-maximal.
